Experimental data: US20130217592A1, “ARRAYS AND METHODS COMPRISING M. SMITHII GENE PRODUCTS” (THE WASHINGTON UNIVERSITY, priority 2007, published 2013)

Legend:
[1] = system: M. smithii strains DSMZ 861 (PS), 2374 (F1), 2375 (ALI) and 11975 (B181); assay: Statin susceptibility of M. smithii strains in the PHAT system, 96-well plates, growth by optical density at 600 nm (all four strains); assay type: cell-based, Methanobrevibacter smithii; conditions: preliminary results
Description: A system for culturing M. smithii in 96-well plate format was designed and constructed in the following manner (See FIG. 15). Three stainless steel paint canisters (Binks, 83S-210, 2 gallon size) were modified for incubation of plates at 37° C. in an oxygen-free gas mix of 20% CO2/80% H2 at a pressure of 30 psi, where all of these growth parameters can be monitored and recorded.
The canisters are heated using Electro-Flex Heat brand Pail Heaters controlled by a custom designed controller consisting of a 16A2120 temperature/process control (Love Controls), an RTD (resistance temperature detector) probe to measure internal tank temperature, and several safety features to prevent overheating or burns.
The system is pressurized with oxygen-free gas that has flowed through a custom-built oxygen scrub. Commercially available gas mixes used for culturing M. smithii contain trace levels of oxygen that would kill the organism: thus, the gas mixture must be passed through an oxygen scrub. This scrub consists of a glass tube filled with copper mesh that is heated to 350° C. with heating tape (HTS/Amptek Duo-Tape), controlled by a benchtop power controller (HTS/Amptek BT-Z). The oxygen scrub is covered with insulating tape and secured behind a heat resistant polyetherimide case. Pressure in each tank is measured and recorded with a digital manometer (LEO record, Omni Instruments).
The system is housed inside an anaerobic chamber (COY laboratories) to allow inspection and manipulation of cultures and plates without exposing M. smithii to oxygen. Each tank can house 30 standard volume 96-well plates, which can be analyzed inside the COY anaerobic chamber with a microplate reader (BioRad) that monitors growth by measuring optical density.
1.5 μl of the stock solutions were added to wells in 96-well plates and transferred to the COY anaerobic chamber where they were kept for at least 24 hours to become anaerobic. 150 microliters of actively growing Methanobrevibacter smithii cultures were then added to each well (excluding medium+drug blanks) to bring the drug concentrations to 1 mM, 100 μM and 10 μM, respectively. The plates were incubated in the newly developed pressurized heated anaerobic tank system in a 4:1 mixture of oxygen-scrubbed H2 and CO2 at a pressure of 30 psi. Cultures grown in 1% ethanol, methanol and DMSO were used as controls. Growth was measured by determining optical density at 600 nm using the BioRad microplate reader (model 680).
Each condition was tested in triplicate with the average measurement plotted.

[2] = system: Bacteroides thetaiotaomicron; assay: Effect of statins on growth of B. thetaiotaomicron (FIG. 14); assay type: cell-based; conditions: statin concentration of 1 mM (FIG. 14)

Structure (SMILES)	inhibition of growth of M. smithii strains ([1]; 1 millimolar)	inhibition of growth of M. smithii strains ([1]; 100 micromolar)	effect on the growth of Bacteroides thetaiotaomicron [2]
CC(C)c1c(C(=O)Nc2ccccc2)c(-c2ccccc2)c(-c2ccc(F)cc2)n1CC[C@@H](O)C[C@@H](O)CC(=O)O [atorvastatin]	inhibit all strains tested	inhibit all strains	None of these three statins had any affect on the growth
CC(C)c1nc(N(C)S(C)(=O)=O)nc(-c2ccc(F)cc2)c1/C=C/[C@@H](O)C[C@@H](O)CC(=O)O [rosuvastatin]	inhibit all strains tested	inhibit all strains	None of these three statins had any affect on the growth
